The structures appear in SMILES notation.

The experiment deals with recombinant AMPK proteins (α1β1γ1, α2β1γ1, α1(1-335), α1(1-394) or α2(1-394)). Kind of experiment: Scintillation Proximity Assay (SPA), AMPK activation. Conditions: effective concentration of activator for 50% of maximal enzyme activity; 50 nM AMPK, 2 μM ATP, 2 μM biotin-SAMS, 30° C., 2 hours. The class given is biochemical, human. On the procedure:
Recombinant human AMPK α1β1γ1, α2β1γ1 or AMPK α subunit truncations α1(1-335), α1(1-394) and α2(1-394) were constructed, expressed and purified as described previously (Pang, T., Zhang, Z. S., Gu, M., Qiu, B. Y., Yu, L. F., Cao, P. R., Shao, W., Su, M. B., Li, J. Y., Nan, F. J., and Li, J. (2008). Rat liver AMPK heterotrimer enzyme was obtained from Upstate (Billerica, Mass., U.S.A.).
Scintillation Proximity Assay
Before the Scintillation Proximity Assay (SPA) assay, 200 nM recombinant AMPK proteins (α1β1γ1, α2β1γ1, α1(1-335), α1(1-394) or α2(1-394)) were fully phosphorylated as described previously (Pang et al., 2008). SPA reactions were performed in 96-well plates at a final volume of 50 μL containing 20 mM Tris-HCl pH 7.5, 5 mM MgCl2, 1 mM DTT, 2 μM biotin-SAMS, 2 μM ATP, 0.2 μCi/well [γ-^33P]ATP, and various amount of activator. Reactions were initiated by the addition of 50 nM recombinant AMPK proteins to the reaction solutions and incubated at 30° C. for 2 hours. After that, reactions were terminated by the addition of 40 μL stop solution containing 80 μg streptavidin-coated SPA beads per well, 50 mM ED TA, 0.1% Triton X-100 in PBS, pH 7.5 and incubated for 1 hour. Finally, a 160 μL suspension solution containing 2.4 M CsCl, 50 mM EDTA, and 0.1% Triton X-100 in PBS (pH 7.5) was added to the reaction solution to suspend SPA beads completely. SPA signals were determined with a Wallac MicroBeta plate counter (PerkinElmer) 30 min later for calculation of the amount of product formed. The amount of products formed in 2 hour was plotted against activator concentrations to determine the effective concentration of the activator (EC50) required for 50% of maximal enzyme activity.
On to `CN1CCN(C(=O)c2ccc3c(c2)C2(CCCC2)CC(c2cc(F)ccc2Br)N3)CC1` (stereo not drawn) [Example 58, [2-(2-Bromo-5-fluoro-phenyl)-spiro(cyclopentane-1,4′-1′,2′,3′,4′-tetrahydroquinolin)-6-yl]-(4-methyl-piperazin-1-yl)-methanone], for which the concentration for a half-maximal effect (EC50) (commonly the concentration needed to bring the measured effect to its halfway point) came out at 3.74 µM.

Regarding `O=C(NC1COC1)c1ccc2c(c1)C1(CCCC1)CC(c1cc(F)ccc1Br)N2` (stereo not drawn) [Example 59, 2-(2-Bromo-5-fluoro-phenyl)-spiro(cyclopentane-1,4′-1′,2′,3′,4′-tetrahydroquinoline)-6-carboxylic acid oxetan-3-ylamide], the half-maximal effective concentration (EC50) turned out to be 11.3 µM. The figure for `CC(C)NC(=O)c1ccc2c(c1)C1(CCCC1)CC(c1cc(F)ccc1Br)N2` (stereo not drawn) [Example 60, 2-(2-Bromo-5-fluoro-phenyl)-spiro(cyclopentane-1,4′-1′,2′,3′,4′-tetrahydroquinoline)-6-carboxylic acid isopropylamide] is 4.41 µM; for `O=C(NC1CCC1)c1ccc2c(c1)C1(CCCC1)CC(c1cc(Cl)ccc1Cl)N2` (stereo not drawn) [Example 61, 2-(2,5-Dichloro-phenyl)-spiro(cyclopentane-1,4′-1′,2′,3′,4′-tetrahydroquinoline)-6-carboxylic acid cyclobutylamide] it is 5.98 µM. Under `O=C(NC1CCC1)c1ccc2c(c1)C1(CCCC1)CC(c1cccc(F)c1)N2` (stereo not drawn) [Example 62, 2-(3-Fluoro-phenyl)-spiro(cyclopentane-1,4′-1′,2′,3′,4′-tetrahydroquinoline)-6-carboxylic acid cyclobutylamide] stands 1.59 µM; under `CNC(=O)c1ccc2c(c1)C1(CCCC1)CC(c1cccc(N3CCOCC3)c1)N2` (stereo not drawn) [Example 63, 2-(3-Morpholin-4-yl-phenyl)-spiro(cyclopentane-1,4′-1′,2′,3′,4′-tetrahydroquinoline)-6-carboxylic acid methylamide], 2.37 µM; under `O=C(NC1CCC1)c1ccc2c(c1)C1(CCCC1)CC(c1cc(Cl)ccc1F)N2` (stereo not drawn) [Example 64, 2-(5-Chloro-2-fluoro-phenyl)-spiro(cyclopentane-1,4′-1′,2′,3′,4′-tetrahydroquinoline)-6-carboxylic acid cyclobutylamide], 7.68 µM. For the compound `CC1(C)CC(c2cc(Cl)ccc2Cl)Nc2ccc(C(=O)NC3CCC3)cc21` (stereo not drawn) [Example 66, 2-(2,5-Dichloro-phenyl)-4,4-dimethyl-1,2,3,4-tetrahydro-quinoline-6-carboxylic acid cyclobutylamide], the 50% effective concentration (EC50) stood at 5.53 µM. The figure for `CC1(C)CC(c2cc(Cl)ccc2F)Nc2ccc(C(=O)NC3CCC3)cc21` (stereo not drawn) [Example 67, 2-(5-Chloro-2-fluoro-phenyl)-4,4-dimethyl-1,2,3,4-tetrahydro-quinoline-6-carboxylic acid cyclobutylamide] is 15.1 µM; for `CC(CO)(CO)NC(=O)c1ccc2c(c1)C(C)(C)CC(c1cccc(N3CCOCC3)c1)N2` (stereo not drawn) [Example 68, 4,4-Dimethyl-2-(3-morpholin-4-yl-phenyl)-1,2,3,4-tetrahydro-quinoline-6-carboxylic acid (2-hydroxy-1-hydroxymethyl-1-methyl-ethyl)-amide] it is 1.56 µM; for `O=C(NC1CCC1)c1ccc2c(c1)C1(CCCC1)CC(c1ccc(F)c(Cl)c1)N2` (stereo not drawn) [Example 69, 2-(3-Chloro-4-fluoro-phenyl)-spiro(cyclopentane-1,4′-1′,2′,3′,4′-tetrahydroquinoline)-6-carboxylic acid cyclobutylamide] it is 4.18 µM. Under `CCC1(C)CC(c2ccc(F)c(Cl)c2)Nc2ccc(C(=O)NC3CCC3)nc21` (stereo not drawn) [Example 70, 6-(3-Chloro-4-fluoro-phenyl)-8-ethyl-8-methyl-5,6,7,8-tetrahydro-[1,5]naphthyridine-2-carboxylic acid cyclobutylamide] stands 9.17 µM.

These data come from patent publication US8592594B2, “Tetrahydro-quinoline derivatives” (Hoffmann-La Roche Inc., priority 2010, dated 2013).
